In patent US12077503B2, “Substituted cyclic amides and their use as herbicides” (FMC CORPORATION, priority 2015, dated 2024):

Columns and labels:
Format in all cases: in vivo
[1] = tested on: barnyardgrass (Echinochloa crus-galli); assay: Test G Post-Emergence Protocol; conditions: Echinochloa crus-galli, post-emergence, 312 h, read-out: Barnyardgrass damage rating
Procedure, shortened: (§1)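 A glasshouse post-emergence test: 8-day-old plants sprayed at 15.625, 62.5 or 250 g/ha, then grown at 24/16 °C day/night with 14 h light and 65% humidity. Damage rated 13 days later, 0–100.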

[2] = tested on: ivy-leaved morning glory (Ipomoea hederacea); assay: Test G Post-Emergence Protocol; conditions: Ipomoea, post-emergence, 312 h, read-out: Morningglory, Ivy-leaved damage rating
Procedure, shortened: as §1

[3] = tested on: giant foxtail (Setaria faberi); assay: Test G Post-Emergence Protocol; conditions: Setaria faberi, post-emergence, 312 h, read-out: Foxtail, Giant damage rating
Procedure, shortened: as §1

corn (Zea mays) [4] = assay: Test G Post-Emergence Protocol; conditions: Zea mays, post-emergence, 312 h, read-out: Corn damage rating
Procedure, shortened: as §1

[5] = tested on: redroot pigweed (Amaranthus retroflexus); assay: Test G Post-Emergence Protocol; conditions: Amaranthus retroflexus, post-emergence, 312 h, read-out: Pigweed, Redroot damage rating
Procedure, shortened: as §1

[6] = tested on: velvetleaf (Abutilon theophrasti); assay: Test G Post-Emergence Protocol; conditions: Abutilon theophrasti, post-emergence, 312 h, read-out: Velvetleaf damage rating
Procedure, shortened: as §1

[7] = tested on: barnyardgrass (Echinochloa crus-galli); assay: Test G Pre-Emergence Protocol; conditions: Echinochloa crus-galli, pre-emergence, 312 h, evaluated after 13 days
Procedure, shortened: (§2)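 Test compound in 0.5% Tween 20 acetone/water (50:50) was applied at three rates (15.625, 62.5, 250 g/ha) to soil sown one day earlier. After 13 days plants were scored for injury, where 0 means unaffected and 100 means completely damaged.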

[8] = tested on: ivy-leaved morning glory (Ipomoea hederacea); assay: Test G Pre-Emergence Protocol; conditions: Ipomoea, pre-emergence, 312 h, evaluated after 13 days
Procedure, shortened: as §2

[9] = tested on: giant foxtail (Setaria faberi); assay: Test G Pre-Emergence Protocol; conditions: Setaria faberi, pre-emergence, 312 h, evaluated after 13 days
Procedure, shortened: as §2

corn (Zea mays) [10] = assay: Test G Pre-Emergence Protocol; conditions: Zea mays, pre-emergence, 312 h, evaluated after 13 days
Procedure, shortened: as §2

[11] = tested on: redroot pigweed (Amaranthus retroflexus); assay: Test G Pre-Emergence Protocol; conditions: Amaranthus retroflexus, pre-emergence, 312 h, evaluated after 13 days
Procedure, shortened: as §2

[12] = tested on: velvetleaf (Abutilon theophrasti); assay: Test G Pre-Emergence Protocol; conditions: Abutilon theophrasti, pre-emergence, 312 h, evaluated after 13 days
Procedure, shortened: as §2

[13] = 15.625 g ai/ha, evaluated after 13 days (100=total damage to plant; 0=no damage to plant)
[14] = 62.5 g ai/ha, evaluated after 13 days, 100=total damage to plant, 0=no damage to plant
[15] = 250 g ai/ha, evaluated after 13 days, 100=total damage to plant, 0=no damage to plant

`Cc1c(F)ccc(NC(=O)[C@@H]2C(=O)N(C)C[C@H]2c2ccc(C(F)(F)F)cc2)c1Cl` (racemic) [Compound 1651] gave a pest or weed control at 15.625 g/ha [1, 13] of 0%, a pest or weed control at 62.5 g/ha [1, 14] of 30% and a pest or weed control at 250 g/ha [1, 15] of 10%. It also gave a pest or weed control at 15.625 g/ha [2, 13] of 0%, a pest or weed control at 62.5 g/ha [2, 14] of 10% and a pest or weed control at 250 g/ha [2, 15] of 10%. For the same molecule, the pest or weed control at 15.625 g/ha [3, 13] was 0%, the pest or weed control at 62.5 g/ha [3, 14] was 70% and the pest or weed control at 250 g/ha [3, 15] was 90%. It also gave a plant injury at 15.625 g/ha (corn (Zea mays) [4]; [13]) of 0%, a plant injury at 62.5 g/ha (corn (Zea mays) [4]; [14]) of 0% and a plant injury at 250 g/ha (corn (Zea mays) [4]; [15]) of 0%. For the same molecule, the pest or weed control at 15.625 g/ha [5, 13] was 0%, the pest or weed control at 62.5 g/ha [5, 14] was 0% and the pest or weed control at 250 g/ha [5, 15] was 0%. It also gave a pest or weed control at 15.625 g/ha [6, 13] of 0%, a pest or weed control at 62.5 g/ha [6, 14] of 0% and a pest or weed control at 250 g/ha [6, 15] of 10%. For the same molecule, the pest or weed control at 15.625 g/ha ([7]; 15.625 g ai/ha, read-out: Barnyardgrass damage rating (100=total damage to plant; 0=no damage to plant)) was 0%, the pest or weed control at 62.5 g/ha ([7]; 62.5 g ai/ha, 100=total damage to plant, 0=no damage to plant, read-out: Barnyardgrass damage rating) was 0% and the pest or weed control at 250 g/ha ([7]; 250 g ai/ha, read-out: Barnyardgrass damage rating (100=total damage to plant; 0=no damage to plant)) was 20%. For the same molecule, the pest or weed control at 15.625 g/ha ([8]; 15.625 g ai/ha, read-out: Morningglory, Ivy-leaved damage rating (100=total damage to plant; 0=no damage to plant)) was 0%, the pest or weed control at 62.5 g/ha ([8]; 62.5 g ai/ha, 100=total damage to plant, 0=no damage to plant, read-out: Morningglory, Ivy-leaved damage rating) was 0% and the pest or weed control at 250 g/ha ([8]; 250 g ai/ha, read-out: Morningglory, Ivy-leaved damage rating (100=total damage to plant; 0=no damage to plant)) was 0%. The pest or weed control at 15.625 g/ha ([9]; 15.625 g ai/ha, read-out: Foxtail, Giant damage rating (100=total damage to plant; 0=no damage to plant)) was 0%, the pest or weed control at 62.5 g/ha ([9]; 62.5 g ai/ha, 100=total damage to plant, 0=no damage to plant, read-out: Foxtail, Giant damage rating) was 20% and the pest or weed control at 250 g/ha ([9]; 250 g ai/ha, read-out: Foxtail, Giant damage rating (100=total damage to plant; 0=no damage to plant)) was 80%. It also gave a plant injury at 15.625 g/ha (corn (Zea mays) [10]; 15.625 g ai/ha, read-out: Corn damage rating (100=total damage to plant; 0=no damage to plant)) of 0%, a plant injury at 62.5 g/ha (corn (Zea mays) [10]; 62.5 g ai/ha, 100=total damage to plant, 0=no damage to plant, read-out: Corn damage rating) of 0% and a plant injury at 250 g/ha (corn (Zea mays) [10]; 250 g ai/ha, read-out: Corn damage rating (100=total damage to plant; 0=no damage to plant)) of 0%. For the same molecule, the pest or weed control at 15.625 g/ha ([11]; 15.625 g ai/ha, read-out: Pigweed, Redroot damage rating (100=total damage to plant; 0=no damage to plant)) was 0%, the pest or weed control at 62.5 g/ha ([11]; 62.5 g ai/ha, 100=total damage to plant, 0=no damage to plant, read-out: Pigweed, Redroot damage rating) was 10% and the pest or weed control at 250 g/ha ([11]; 250 g ai/ha, read-out: Pigweed, Redroot damage rating (100=total damage to plant; 0=no damage to plant)) was 20%. It also gave a pest or weed control at 15.625 g/ha ([12]; 15.625 g ai/ha, read-out: Velvetleaf damage rating (100=total damage to plant; 0=no damage to plant)) of 0%, a pest or weed control at 62.5 g/ha ([12]; 62.5 g ai/ha, 100=total damage to plant, 0=no damage to plant, read-out: Velvetleaf damage rating) of 0% and a pest or weed control at 250 g/ha ([12]; 250 g ai/ha, read-out: Velvetleaf damage rating (100=total damage to plant; 0=no damage to plant)) of 10%.
